Results from patent US12485107B2, “Methods for the prevention or treatment of cytokine storm” (Beth Israel Deaconess Medical Center, Inc., priority 2019, dated 2025).
Entries after “also recorded” stand apart in the source; their conditions may differ.

How the values were obtained:
[1] = system: B/CMBA.Ov murine ovarian epithelial cells; test: Annexin V/PI cell death analysis of B/CMBA.Ov cells; type: cell-based; details: 5 μM, 24 hours, vs vehicle
Method: Murine (ID8) or human (OVCAR5) ovarian tumor cells were treated with vehicle or a chemotherapeutic agent (e.g., cisplatin, carboplatin, or paclitaxel) as described. B/CMBA.Ov murine ovarian epithelial cells were treated with vehicle or PTUPB (1 or 5 μM) for 24 hours. The floating population (e.g., dead cells or “debris”) was collected, and the remaining adhered cells were trypsinized and combined with the dead cells. RAW264.7 murine macrophages were treated with vehicle or PTUPB (5 μM) for 24 hours. The floating population was collected and the remaining adhered cells were detached using a cell scraper (Corning Inc., Corning, NY) and combined with the dead cells. Cells were counted via hemocytometer, pelleted, and resuspended in PBS at 1×10^6 cells/mL. Next, 2×10^5 cells were stained with annexin V and propidium iodide (PI) according to FITC Annexin V/Dead Cell Apoptosis Kit protocol (Life Technologies, Carlsbad, CA). Staining was assessed using the BD LSR Fortessa (BD Biosciences, San Jose, CA) at the Dana-Farber Cancer Institute Jimmy Fund Flow Cytometry Core, and analyzed using FlowJo software (Tree Star Inc., Ashland, OR). Experiments were performed three times with similar results.

ID8 tumor cells = test: MTT proliferation assay; type: cell-based, murine; details: 1-10 μM, 24 hours
Method: Cell Proliferation Kit 1 (MTT) (Roche, Basel, Switzerland) was used according to recommended protocol to quantify proliferation. ID8 cells were plated at 5×10^3 cells/well in 96-well plates with DMEM supplemented with 1% FBS and 1% GPS and incubated overnight. Cells were re-fed with DMEM supplemented with 1% FBS and 1% GPS and vehicle or PTUPB (1, 5, or 10 μM). After a 24 hour incubation at 37° C., 10 μL of MTT reagent was added to each well and incubated for 4 hours at 37° C. Next, 100 μL of solubilizing solution was added to each well and incubated overnight at 37° C. VersaMax microplate reader (Molecular Devices, San Jose, CA) was used to quantify the results of the assay. Absorbance readings were normalized to vehicle. Experiments were performed three times with similar results.

[2] = system: RAW264.7 murine macrophages; test: LC-MS/MS oxylipin profiling of conditioned medium of debris-stimulated RAW264.7 macrophages; type: cell-based; details: 5 μM, 2 hours; paclitaxel-generated ID8 debris
Method: Macrophages were treated with vehicle or PTUPB (1-10 μM) in Dulbecco's phosphate-buffered saline containing calcium and magnesium (PBS^+/+) (Lonza, Basel, Switzerland) and incubated for 2 hours at 37° C. Carboplatin- or paclitaxel-generated ID8 or OVCAR5 debris was added to murine or human macrophages, respectively, at a 1:4 (macrophage:dead cell body) ratio and incubated for 1 hour at 37° C. Next, plates were aspirated, macrophages were re-fed with serum-free medium, and incubated overnight at 37° C. The conditioned medium was collected the next day, centrifuged at 1100 rpm for 5 minutes to remove particulates, and stored at −20° C. until further analysis via cytokine array, ELISA, or LC-MS/MS. Collection of RAW264.7 murine macrophage conditioned medium was repeated using debris from three distinct collections for a total of three separate experiments. Collection of human monocyte-derived macrophage conditioned medium was repeated using peripheral blood monocytes from three different human donors and debris from three distinct collections for a total of three separate experiments. Collection of primary murine peritoneal macrophages was repeated using macrophages pooled from 5-10 C57BL/6 female mice and debris from two distinct collections for a total of two separate experiments.
Oxylipins in conditioned medium from 3 biological repeats were analyzed by LC-MS/MS as described previously (Yang et al., Anal. Chem. 81(19):8085-8093 (2009)). In brief, 1 mL of medium was loaded onto the conditioned Oasis HLB solid phase extraction cartridge (Waters, Milford, MA), washed with 5% methanol solution, and eluted with 0.5 mL of methanol and 1.5 mL of ethyl acetate consequently. The elution was concentrated and reconstituted in 50 μL of methanol solution before injection into the UPLC/MS/MS system (Agilent 1200 SL and Sciex 4000 Qtrap system). The optimized parameters for LC-MS/MS were described in detail previously (Yang et al., supra).

[3] = system: debris-stimulated orthotopic ovarian tumor (ID8); test: Debris-stimulated orthotopic ID8 ovarian tumor model; type: in vivo, mice; details: PTUPB 30 mg/kg/day
Method: All animal studies were reviewed and approved by the Animal Care and Use Committee of Beth Israel Deaconess Medical Center, Boston, MA Mice were housed at a maximum of 5 animals per cage in a pathogen-free facility with unlimited access to sterile water and chow. Daily welfare evaluations and animal sacrifices were carried out according to the Committee guidelines. For murine injections, chemotherapy-generated murine (ID8) or human (OVCAR5) ovarian tumor cell debris was combined with ID8 or OVCAR5 living cells at equal volumes in PBS. Six-week-old female C57BL/6 (The Jackson Laboratory, Bar Harbor, ME) or SCID mice (Charles River, Cambridge, MA) were injected subcutaneously or intraperitoneally with 100 μL/mouse of ID8 or OVCAR5 cells, respectively. For orthotopic injections, 6-week-old C57BL/6 female mice were injected with 20 μL/mouse of matrigel (Becton Dickinson and Company, Franklin Lakes, NJ) mixed with paclitaxel-generated ID8 debris and/or ID8 living cells at a 1:1 (matrigel:cells) ratio directly into the right ovarian bursa. Systemic treatment with PTUPB (30 mg/kg/day) or control was administered via mini-osmotic pumps (Alzet Inc., Cupertino, CA) implanted into the peritoneum of the mice 4 weeks post-injection. Treatment ended 28 days after implantation of the pumps. […]

[4] = system: RAW264.7 murine macrophages; type: cell-based; details: 5 μM, 2 hours pre-treatment
[5] = system: human monocyte-derived macrophage; type: cell-based; details: 5 μM, 2 hours
[6] = system: RAW264.7 murine macrophages; type: cell-based; details: RFU, percent increase above vehicle-treated macrophages
[7] = system: primary peritoneal murine macrophages; type: cell-based; details: RFU, percent increase above vehicle-treated macrophages
[8] = kidney injury model; Hye Khan et al. 2016; cited from earlier work

## NS(=O)(=O)c1ccc(-n2nc(CCCNC(=O)Nc3ccc(C(F)(F)F)cc3)cc2-c2ccccc2)cc1 [PTUPB, 4-(5-phenyl-3-{3-[3-(4-trifluoromethyl-phenyl)-ureido]propyl}-pyrazol-1-yl) benzenesulfonamide]
[1]
  induction of cell death of ovarian epithelial cells (B/CMBA.Ov): did not induce cell death
ID8 tumor cells
  proliferation of ID8 tumor cells in vitro: inhibited proliferation
[2]
  debris-stimulated surge of COX-derived lipid mediators PGF2α, PGD2, PGJ2 released by macrophages: suppressed this debris-stimulated surge of bioactive lipids; also recorded: inhibits the surge
  reduction of PGE2, THF diol, 15-HETE, 11-HETE, 5-HETE by debris-stimulated macrophages: neutralized the reduction of these lipids; also recorded: neutralizing the reduction
  release of 15-oxoETE by macrophages in the presence of debris: suppressed the release of 15-oxoETE
[3]
  debris-stimulated orthotopic ovarian tumor growth: suppressed debris-stimulated orthotopic ovarian tumor growth
[3]; log-rank test=7.91, p=0.005
  survival compared to control, paclitaxel-generated debris orthotopic model: significantly prolonged survival
[4]
  cytokine storm released by macrophages stimulated with aflatoxin B1-generated Hepa 1-6 debris: prevents the aflatoxin B1-induced cytokine storm; also recorded: able to inhibit; also recorded: prevented
[5]
  cytokine storm induced by aflatoxin B1-generated HepG2 debris in human monocyte-derived macrophages: inhibited
[6]
  macrophage phagocytosis of aflatoxin B1-generated tumor cell debris, RAW264.7: able to stimulate macrophage phagocytosis; also recorded: stimulates macrophage phagocytosis
[7]
  macrophage phagocytosis of aflatoxin B1-generated tumor cell debris, primary peritoneal murine macrophages: stimulates macrophage phagocytosis
[8]
  release of pro-inflammatory cytokines, such as CCL2/MCP-1: suppressed
